Test system: MCF-7 cells
Experiment: Transwell migration assay, IGF-I+IGFBP-5+VN trimeric complex-stimulated MCF-7 cell migration
Format: cell-based, human
From the text: Two motifs (motifs 1 and 8) within native VN, deemed potentially significant in supporting the binding of IGF-II, IGFBP-3 and IGFBP-5, were identified as outlined in the previous section. After preliminary in silico analyses motif 8 (J4-7) was deemed as potentially the most significant region within native VN supporting binding interactions of all the three IGF-II, IGFBP-3 and IGFBP-5 proteins and was chosen for the initial analyses. The VN-peptide covering the sequences of motif 8 was designed such that it covered all the 3AA frameshift sets that contributed to a positive spot within the motif 8 (see, FIG. 3 and Table 7). The sequence of this peptide is RVNLRTRRVDTVDPPYPRS [SEQ ID NO:100] and is designated P8. […] The sequence of that peptide is […] [SEQ ID NO:86] and is designated P7. […] The functional effects of these peptides on IGF-I:IGFBP:VN-stimulated breast cancer cell migration were investigated using Transwell® assays. Transwells® were pre-bound with VN, either alone or in combination with IGF-I and IGFBP-5 (TRI). Treatment with TRI supplemented with increasing concentrations of peptides P7 and/or P8 were assayed. TRI supplemented with Anlg or Neg peptide were included as positive and negative controls of migration inhibition, respectively. All unbound proteins were removed with washing and MCF-7 cell migration was assessed over 15 hours.
The Transwell® inserts were prepared by pre-binding the lower chamber and the under-surface of the 8-μm pore membranes with proteins as described below. For all 2D functional assays described throughout this study, including Transwell® the treatments for the pre-binding steps were VN, IGF-I+IGFBP-5+VN (TRI) complex, either alone or in combination with respective controls or VN-peptides. The concentrations of the proteins added into the culture wells were VN, 1 μg/mL; IGF-I, 30 ng/mL and IGFBP-5, 90 ng/mL, unless otherwise stated. The concentration of VN-peptides used are indicated where appropriate.
Optimal IGF-I:IGFBP-5:VN-mediated attachment and migration of MCF-7 cells in multiwell plates is obtained by pre-binding human native-IGF-I and/or IGFBP-5 and VN at concentrations of 30 ng/mL, 90 ng/mL and 1 μg/mL per well, respectively, to the lower chambers and under surfaces of Transwells®. […] For Anlg, concentrations varying from 30 ng/mL to 300 ng/mL were used.
Transwells® were prepared by pre-binding the test proteins, either alone or in combinations, to the lower chambers and under-surfaces of Transwells® following procedures previously described (Kricker et al., 2003). Briefly, 0.5 mL DMEM/F12 serum-free phenol-red free medium (SFM) containing 1 μg/mL VN was added to the lower chambers of 24-well, 8-μm pore Transwell® plates and incubated for 3 hours at 37° C. Unbound VN was removed and the wells were washed twice with 0.5 mL SFM+0.5% BSA following which 0.5 mL of SFM+0.5% BSA was placed in the lower chamber to block surfaces with no protein bound. To pre-bind growth factors, 0.5 mL SFM+0.05% BSA containing native IGF-I (30 ng/mL), IGFBP-5 (90 ng/mL) or Anlg, either alone or in combination, were added to the lower chambers of the Transwells® and incubated overnight at 4° C. The solution containing unbound growth factors was removed and the wells were washed twice with SFM+0.05% BSA and replaced with 0.5 mL of SFM+0.05% BSA. Throughout the pre-binding procedure care was taken to keep the upper surface of the Transwell® inserts dry.
Migration assays were essentially performed following protocols described previously in Leavesley et al 1993, J Cell Biol. 121:163-70. The cells in culture flasks were split 1:1, 24 hours prior to performing the migration assay. The cells were serum-starved for 4 hours and a cell suspension containing 6×10^4 cells in 200 μL SFM+0.05% BSA was seeded onto the upper-surface of the pre-coated Transwell® inserts and incubated for 15 hours at 37° C., 5% CO2 (refer to above for proteins pre-bound and concentrations used). […]

| Sequence | MCF-7 cell migration (TRI supplemented with non-binding peptide, concentration not given, 15 hours) | Effect on TRI-stimulated MCF-7 cell migration (non-binding peptide supplemented into TRI, concentration not given) | MCF-7 cell migration (TRI supplemented with peptide at 3× molar concentration of IGFBP-5 (43 ng/mL P7, 38 ng/mL P8), 15 hours) | MCF-7 cell migration (TRI supplemented with peptide at 9× molar concentration of IGFBP-5, 15 hours) |
| --- | --- | --- | --- | --- |
| KTYLFKGSQYWRFEDG [Neg, reference compound] | 276±24 % of VN | did not affect | – | – |
| LFSSEESNLGANNYDDYRMDWL (listed as Homo sapiens) [Peptide P7, human VN motif 7 mimic] | – | – | 94.7±0.2 % of VN | 146±14 % of VN |
